Like-named read-outs stand apart in the source and are kept apart here.
Key:
[1] = system: phosphorylated AKT Ser473 (pAKT S473), mTORC2 activity, PC3 cells; experiment: mTOR target engagement assay, immunofluorescent cell-based, pAKT S473 readout (mTORC2 activity)
Summary of the method: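 After blocking, cells were stained overnight at 4 °C with anti-pAKT S473 antibody, then a fluorescent secondary; inhibition was read as reduced fluorescence intensity.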

[2] = system: phosphorylated 4E-BP1 Thr37/46 (p4E-BP1 Thr37/46), mTORC1 activity, PC3 cells; experiment: mTOR target engagement assay, immunofluorescent cell-based, p4E-BP1 Thr37/46 readout (mTORC1 activity); conditions: read-out: p4E-BP1 Thr37/46 IC50
Summary of the method: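 Cell-based immunofluorescence in PC3 cells: serially diluted compounds (0.25% DMSO, 5% FBS) applied for ninety minutes at 37° C before fixation and overnight 4° C staining of p4E-BP1 Thr37/46. Untreated DMSO wells set maximal phosphorylation; IC50 obtained by logistic fitting.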

| IC50 ([1]; PC3 cells) [nM] | IC50 ([2]; PC3 cells) [nM] | SMILES | IC50 ([1]; Homo sapiens, PC-3, PC3 cells) [nM] | IC50 ([2]; Homo sapiens, PC-3, PC3 cells) [nM] |
| --- | --- | --- | --- | --- |
| – | – | CS(=O)(=O)c1c([C@@H]2C[C@H]3CC[C@@H](C2)N3C(=O)c2nnc[nH]2)nc2c(-c3ccc(C4(N)CC4)c(F)c3)cnn2c1N [Compound 8.44, ((1R,3s,5S)-3-(7-amino-3-(4-(1-aminocyclopropyl)-3-fluorophenyl)-6-(methylsulfonyl)pyrazolo[1,5-a]pyrimidin-5-yl)-8-azabicyclo[3.2.1]octan-8-yl)(4H-1,2,4-triazol-3-yl)methanone] | 1000 to 10000 | 1000 to 10000 |
| – | – | CCN/C(=N\CCCN(C)C)n1ncc(C(=O)N2[C@@H]3CC[C@H]2C[C@H](c2nc4c(-c5ccc(-c6ccccc6F)nc5)cnn4c(N)c2S(C)(=O)=O)C3)n1 [Compound 8.46, (E)-4-((1R,3s,5S)-3-(7-amino-3-(6-(2-fluorophenyl)pyridin-3-yl)-6-(methylsulfonyl)pyrazolo[1,5-a]pyrimidin-5-yl)-8-azabicyclo[3.2.1]octane-8-carbonyl)-N′-(3-(dimethylamino)propyl)-N-ethyl-2H-1,2,3-triazole-2-carboximidamide] | 1 to 100 | 100 to 1000 |
| 1 to 100 | 1 to 100 | CC(=O)c1c([C@@H]2C[C@H]3CC[C@@H](C2)N3C(=O)c2nnc[nH]2)nc2c(-c3ccc(NC4CC4)nc3)cnn2c1N [Compound 8.47, 1-(5-((1R,3s,5S)-8-(4H-1,2,4-triazole-3-carbonyl)-8-azabicyclo[3.2.1]octan-3-yl)-7-amino-3-(6-(cyclopropylamino)pyridin-3-yl)pyrazolo[1,5-a]pyrimidin-6-yl)ethanone] | – | – |
| – | – | CC(=O)c1c([C@@H]2C[C@H]3CC[C@@H](C2)N3C(=O)c2nnc[nH]2)nc2c(-c3ccc(N)nc3)cnn2c1N [Compound 8.48, 1-(5-((1R,3s,5S)-8-(4H-1,2,4-triazole-3-carbonyl)-8-azabicyclo[3.2.1]octan-3-yl)-7-amino-3-(6-aminopyridin-3-yl)pyrazolo[1,5-a]pyrimidin-6-yl)ethanone] | 1 to 100 | 1 to 100 |
| 1 to 100 | 1 to 100 | CC(=O)c1c([C@@H]2C[C@H]3CC[C@@H](C2)N3C(=O)c2nnc[nH]2)nc2c(-c3cnc(NC4CC4)nc3)cnn2c1N [Compound 8.49, 1-(5-((1R,3s,5S)-8-(4H-1,2,4-triazole-3-carbonyl)-8-azabicyclo[3.2.1]octan-3-yl)-7-amino-3-(2-(cyclopropylamino)pyrimidin-5-yl)pyrazolo[1,5-a]pyrimidin-6-yl)ethanone] | – | – |
| – | – | CCC(=O)NNc1ccc(-c2cnn3c(N)c(C(C)=O)c([C@@H]4C[C@H]5CC[C@@H](C4)N5C(=O)CO)nc23)cn1 [Compound 8.52, N′-(5-(6-acetyl-7-amino-5-((1R,3s,5S)-8-(2-hydroxyacetyl)-8-azabicyclo[3.2.1]octan-3-yl)pyrazolo[1,5-a]pyrimidin-3-yl)pyridin-2-yl)propionohydrazide] | 1000 to 10000 | > 10000 |
| – | – | CS(=O)(=O)c1c([C@@H]2C[C@H]3CC[C@@H](C2)N3C(=O)c2nnc[nH]2)nc2c(-c3ccc(OC4CCC4)nc3)cnn2c1N [Compound 8.53, ((1R,3s,5S)-3-(7-amino-3-(6-cyclobutoxypyridin-3-yl)-6-(methylsulfonyl)pyrazolo[1,5-a]pyrimidin-5-yl)-8-azabicyclo[3.2.1]octan-8-yl)(4H-1,2,4-triazol-3-yl)methanone] | 1000 to 10000 | 1000 to 10000 |
| – | – | CS(=O)(=O)c1c([C@@H]2C[C@H]3CC[C@@H](C2)N3C(=O)c2nnc[nH]2)nc2c(-c3ccc(OCC4CC4)nc3)cnn2c1N [Compound 8.54, ((1R,3s,5S)-3-(7-amino-3-(6-(cyclopropylmethoxy)pyridin-3-yl)-6-(methylsulfonyl)pyrazolo[1,5-a]pyrimidin-5-yl)-8-azabicyclo[3.2.1]octan-8-yl)(4H-1,2,4-triazol-3-yl)methanone] | > 10000 | > 10000 |
| – | – | Nc1c(C2CC2)c([C@@H]2C[C@H]3CC[C@@H](C2)N3C(=O)c2nnc[nH]2)nc2c(-c3cnc4c(c3)OCc3cn[nH]c3-4)cnn12 [Compound 8.55] | 1000 to 10000 | 1000 to 10000 |
| – | – | CC(=O)c1c([C@@H]2C[C@H]3CC[C@@H](C2)N3C(=O)c2nnc[nH]2)nc2c(-c3ccc(C#CCO)nc3)cnn2c1N [Compound 8.56, 1-(5-((1R,3s,5S)-8-(4H-1,2,4-triazole-3-carbonyl)-8-azabicyclo[3.2.1]octan-3-yl)-7-amino-3-(6-(3-hydroxyprop-1-ynyl)pyridin-3-yl)pyrazolo[1,5-a]pyrimidin-6-yl)ethanone] | 100 to 1000 | 100 to 1000 |
| – | – | CC(=O)c1c([C@@H]2C[C@H]3CC[C@@H](C2)N3C(=O)c2nnc[nH]2)nc2c(-c3ccc(C#CC4CC4)nc3)cnn2c1N [Compound 8.60, 1-(5-((1R,3s,5S)-8-(4H-1,2,4-triazole-3-carbonyl)-8-azabicyclo[3.2.1]octan-3-yl)-7-amino-3-(6-(cyclopropylethynyl)pyridin-3-yl)pyrazolo[1,5-a]pyrimidin-6-yl)ethanone] | 100 to 1000 | 100 to 1000 |
| – | – | CC(=O)c1c([C@@H]2C[C@H]3CC[C@@H](C2)N3C(=O)CO)nc2c(-c3ccc(C#CC4CC4)nc3)cnn2c1N [Compound 8.61, 1-((1R,3s,5S)-3-(6-acetyl-7-amino-3-(6-(cyclopropylethynyl)pyridin-3-yl)pyrazolo[1,5-a]pyrimidin-5-yl)-8-azabicyclo[3.2.1]octan-8-yl)-2-hydroxyethanone] | 100 to 1000 | 100 to 1000 |
| – | – | Nc1c(C2CC2)c([C@@H]2C[C@H]3CC[C@@H](C2)N3C(=O)c2nnc[nH]2)nc2c(C#Cc3cccnc3)cnn12 [Compound 8.62, ((1R,3s,5S)-3-(7-amino-6-cyclopropyl-3-(pyridin-3-ylethynyl)pyrazolo[1,5-a]pyrimidin-5-yl)-8-azabicyclo[3.2.1]octan-8-yl)(4H-1,2,4-triazol-3-yl)methanone] | 1000 to 10000 | 1000 to 10000 |
| – | – | CS(=O)(=O)c1c([C@@H]2C[C@H]3CC[C@@H](C2)N3c2nccc(N)n2)nc2c(-c3ccc(-c4ccccc4)nc3)cnn2c1N [Compound 8.63, 5-((1R,3s,5S)-8-(4-aminopyrimidin-2-yl)-8-azabicyclo[3.2.1]octan-3-yl)-6-(methylsulfonyl)-3-(6-phenylpyridin-3-yl)pyrazolo[1,5-a]pyrimidin-7-amine] | 1000 to 10000 | 1000 to 10000 |
| – | – | CS(=O)(=O)c1c([C@@H]2C[C@H]3CC[C@@H](C2)N3c2ncncc2N)nc2c(-c3ccc(-c4ccccc4)nc3)cnn2c1N [Compound 8.64, 5-((1R,3s,5S)-8-(5-aminopyrimidin-4-yl)-8-azabicyclo[3.2.1]octan-3-yl)-6-(methylsulfonyl)-3-(6-phenylpyridin-3-yl)pyrazolo[1,5-a]pyrimidin-7-amine] | 100 to 1000 | 1000 to 10000 |
| – | – | CS(=O)(=O)c1c([C@@H]2C[C@H]3CC[C@@H](C2)N3C#N)nc2c(-c3ccc(-c4ccccc4)nc3)cnn2c1N [Compound 8.70, (1R,3s,5S)-3-(7-amino-6-(methylsulfonyl)-3-(6-phenylpyridin-3-yl)pyrazolo[1,5-a]pyrimidin-5-yl)-8-azabicyclo[3.2.1]octane-8-carbonitrile] | 100 to 1000 | 1000 to 10000 |
| – | – | CC(=O)c1c([C@@H]2C[C@H]3CC[C@@H](C2)N3C#N)nc2c(-c3ccc(-c4ccccc4)nc3)cnn2c1N [Compound 8.71, (1R,3s,5S)-3-(6-acetyl-7-amino-3-(6-phenylpyridin-3-yl)pyrazolo[1,5-a]pyrimidin-5-yl)-8-azabicyclo[3.2.1]octane-8-carbonitrile] | 100 to 1000 | 100 to 1000 |
| 1000 to 10000 | 1000 to 10000 | CS(=O)(=O)c1c([C@@H]2C[C@H]3CC[C@@H](C2)N3C(=N)NO)nc2c(-c3ccc(-c4ccccc4)nc3)cnn2c1N [Compound 8.72, (1R,3s,5S)-3-(7-amino-6-(methylsulfonyl)-3-(6-phenylpyridin-3-yl)pyrazolo[1,5-a]pyrimidin-5-yl)-N-hydroxy-8-azabicyclo[3.2.1]octane-8-carboximidamide] | – | – |
| – | – | CS(=O)(=O)c1c([C@@H]2C[C@H]3CC[C@@H](C2)N3C(=N)N)nc2c(-c3ccc(-c4ccccc4)nc3)cnn2c1N [Compound 8.73, (1R,3s,5S)-3-(7-amino-6-(methylsulfonyl)-3-(6-phenylpyridin-3-yl)pyrazolo[1,5-a]pyrimidin-5-yl)-8-azabicyclo[3.2.1]octane-8-carboximidamide] | 1000 to 10000 | 1000 to 10000 |
| – | – | CS(=O)(=O)c1c([C@@H]2C[C@H]3CC[C@@H](C2)N3c2noc(=O)[nH]2)nc2c(-c3ccc(-c4ccccc4)nc3)cnn2c1N [Compound 8.74, 3-((1R,3s,5S)-3-(7-amino-6-(methylsulfonyl)-3-(6-phenylpyridin-3-yl)pyrazolo[1,5-a]pyrimidin-5-yl)-8-azabicyclo[3.2.1]octan-8-yl)-1,2,4-oxadiazol-5(4H)-one] | 1000 to 10000 | > 10000 |
| – | – | CNC(=O)Nc1ccc(-c2cnn3c(N)c(C(C)=O)c([C@@H]4C[C@H]5CC[C@@H](C4)N5C(=O)c4ncn[nH]4)nc23)cn1 [Compound 8.75, 1-(5-(5-((1R,3s,5S)-8-(1H-1,2,4-triazole-5-carbonyl)-8-azabicyclo[3.2.1]octan-3-yl)-6-acetyl-7-aminopyrazolo[1,5-a]pyrimidin-3-yl)pyridin-2-yl)-3-methylurea] | 1 to 100 | 100 to 1000 |
| – | – | CC(=O)Nc1ccc(-c2cnn3c(N)c(C(C)=O)c([C@@H]4C[C@H]5CC[C@@H](C4)N5C(=O)c4ncn[nH]4)nc23)cn1 [Compound 8.76, N-(5-(5-((1R,3s,5S)-8-(1H-1,2,4-triazole-5-carbonyl)-8-azabicyclo[3.2.1]octan-3-yl)-6-acetyl-7-aminopyrazolo[1,5-a]pyrimidin-3-yl)pyridin-2-yl)acetamide] | 1 to 100 | 1 to 100 |

Source: patent publication US9227971B2, “Pyrazolo[1,5-a]pyrimidine compounds as mTOR inhibitors” (Merck Sharp & Dohme Corp., priority 2010, dated 2016)
